The text below walks through data of ChEMBL document CHEMBL1156895 (Bioorg Med Chem Lett, 2010).

Active and inactive are the calls of the source. No cut-off for these calls is given here. Where only a bound is given, the exact number is not on record here.

The nature of data set [1]: Induction of NO release in phosphate buffer at pH 7.4. The format is physicochemical.
Data set [2] can be described thus: Induction of NO release in presence of 5 mM L-cysteine. The format is physicochemical.
Data set [3] relates to Rattus norvegicus. The data set can be described thus: Antiinflammatory activity in po dosed rat assessed as inhibition of carrageenan-induced paw edema. It is filed as functional.
Data set [4] addresses T1, Prostaglandin G/H synthase 1 (Ovis aries, UniProt P05979).
T1 sequence (P05979 whole entry): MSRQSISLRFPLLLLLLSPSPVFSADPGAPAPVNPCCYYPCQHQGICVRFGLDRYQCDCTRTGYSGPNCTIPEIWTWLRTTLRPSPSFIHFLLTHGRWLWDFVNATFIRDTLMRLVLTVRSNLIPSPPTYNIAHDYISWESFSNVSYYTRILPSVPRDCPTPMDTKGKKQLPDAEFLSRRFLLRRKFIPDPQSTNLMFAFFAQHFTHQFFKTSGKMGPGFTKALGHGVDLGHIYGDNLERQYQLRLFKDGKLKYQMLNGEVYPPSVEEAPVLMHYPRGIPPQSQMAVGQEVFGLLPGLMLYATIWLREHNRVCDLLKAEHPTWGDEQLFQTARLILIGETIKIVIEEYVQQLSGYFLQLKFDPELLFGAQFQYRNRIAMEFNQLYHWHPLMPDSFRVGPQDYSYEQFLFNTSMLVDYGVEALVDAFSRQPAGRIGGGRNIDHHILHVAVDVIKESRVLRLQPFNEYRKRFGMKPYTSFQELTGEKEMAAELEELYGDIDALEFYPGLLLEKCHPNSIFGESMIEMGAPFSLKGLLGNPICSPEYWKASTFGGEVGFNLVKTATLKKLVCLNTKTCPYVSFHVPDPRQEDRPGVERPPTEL
Description: Inhibition of ovine COX1 by enzyme immunoassay

Data set [5] is filed under the species Rattus norvegicus. Conditions: 100 mg/kg.
Data set [6] addresses T2, Prostaglandin G/H synthase 1 (Ovis aries) (UniProt P05979).
T2 sequence (whole entry): T1 sequence (P05979 whole entry)
Briefly: Inhibition of ovine COX1 at 100 uM by enzyme immunoassay.

A short description of data set [7]: Selectivity ratio of IC50 for ovine COX1 to IC50 for human recombinant COX2.
Data set [8] is filed under the species Rattus norvegicus. The data set can be described thus: animal or person. Conditions: po, read-out: INH.

`CS(=O)(=O)c1ccc(-n2nc(C(F)(F)F)cc2C2=CCN(CCCCO[N+](=O)[O-])CC2)cc1`: the Activity in data set [1] is recorded as 3.1%; in data set [2], 3.8%. In the data set with Rattus norvegicus [3], the 50% effective dose (ED50) (in general, the dose that gives a 50% effect, or the effect in half of the subjects) turned out to be 118 mg/kg. In data set [4], the half-maximal inhibitory concentration (IC50) (usually the concentration that gives 50% inhibition) is 34.7 µM.
In the case of `NS(=O)(=O)c1ccc(-n2nc(C(F)(F)F)cc2C2=CCN(CCCCO[N+](=O)[O-])CC2)cc1`, the Activity in data set [1] is 5.8%; in data set [2] it was 7.1%. The half-maximal inhibitory concentration (IC50) in data set [4] amounted to 16.2 µM. The inhibition entry in the data set listed under Rattus norvegicus [5] is “inactive”.
On to `CS(=O)(=O)c1ccc(-n2nc(C(F)(F)F)cc2C2CCN(CCCCO[N+](=O)[O-])CC2)cc1`, for which the inhibition result in data set [6] is “inactive”. For the same compound, in data set [7], the Ratio IC50 is more than 6. In addition, the figures for the Activity in data set [1] and in data set [2] were 3.8% and 8.4%, respectively. Moreover, the ED50 with Rattus norvegicus [3] stood at 132 mg/kg. This compound also displayed a half-maximal inhibitory concentration (IC50) in data set [4] of more than 100 µM.
For `O=[N+]([O-])OCC(CO[N+](=O)[O-])O[N+](=O)[O-]` [NITROGLYCERIN], the figures for the Activity in data set [1] and in data set [2] were 2.8% and 10.1%, respectively.
`CC(C)Cc1ccc(C(C)C(=O)O)cc1` (stereo unspecified) [IBUPROFEN]: the 50% effective dose (ED50) in the data set with Rattus norvegicus [3] turned out to be 67.4 mg/kg.
As to `NS(=O)(=O)c1ccc(-n2nc(C(F)(F)F)cc2C2CCN(CCCCO[N+](=O)[O-])CC2)cc1`, the Activity in data set [1] was 2.4%; in data set [2], 3.1%. In data set [4], this compound had an IC50 of 19.8 µM. The inhibition in vivo at 100 mg/kg in the data set filed under Rattus norvegicus [8] was 9%.
